Laboratory results taken from patent US10392383B2, “3-(1H-benzo[d]imidazol-2-yl)-1H-pyrazolo[4,3-b]pyridines and therapeutic uses thereof” (Samumed, LLC, priority 2015, dated 2019).

Tests used:
[1] = tested on: primary human mesenchymal stem cells (hMSCs); assay: Induction of chondrogenesis in human mesenchymal stem cells (nodule staining with Rhodamine B / Nile Red); assay type: cell-based; settings: for Emax: TGF-β3 (10 ng/mL) as positive control, read-out: Max. Activity as % TGF-β3 activity; for EC50: concentration required to induce 50% levels of chondrogenesis vs TGF-β3, read-out: Conc (nM) of 50% TGF-β3 activity
Description: Representative compounds were screened using primary human mesenchymal stem cells (hMSCs) to determine their ability to induce chondrogenesis (process by which cartilage is developed).
Human Mesenchymal Stem Cell Culture: Primary human mesenchymal stem cells (hMSCs) were purchased from Lonza (Walkersville, Md.) and expanded in Mesenchymal Stem Cell Growth Media (Lonza). Cells between passage 3 and 6 were used for the experiments.
Compound Screening: Each compound was dissolved in DMSO as a 10 mM stock and used to prepare compound source plates. For the 96 well assay, serial dilution (1:3, 6-point dose-response curves from 2700 nM to 10 nM) and compound transfer was performed using the ECHO 550 (Labcyte, Sunnyvale, Calif.) into 96-well clear bottom assay plates (Greiner Bio-One) with appropriate DMSO backfill for a final DMSO concentration of 0.03%. hMSCs were plated at 20,000 cells/well in 250 μL/well Incomplete Chondrogenic Induction Medium (Lonza; DMEM, dexamethasone, ascorbate, insulin-transferrin-selenium [ITS supplement], gentamycin-amphotericin [GA-1000], sodium pyruvate, proline and L-glutamine). TGF-β3 (10 ng/mL) was used as a positive control for differentiation while negative control wells were treated with 75 nL DMSO for normalization and calculating EC50 values. For the 384 well assay, serial dilution (1:3, 8-point dose-response curves from 5000 nM to 2.2 nM) and compound transfer was performed using the ECHO 550 (Labcyte, Sunnyvale, Calif.) into 384-well clear bottom assay plates (Greiner Bio-One) with appropriate DMSO backfill for a final DMSO concentration of 0.03%. hMSCs were plated at 8,000 cells/well in 80 μL/well Incomplete Chondrogenic Induction Medium (Lonza; DMEM, dexamethasone, ascorbate, insulin-transferrin-selenium [ITS supplement], gentamycin-amphotericin [GA-1000], sodium pyruvate, proline and L-glutamine). TGF-β3 (10 ng/mL) was used as a positive control for differentiation while negative control wells were treated with 25 nL DMSO for normalization and calculating EC50 values. Cells were incubated at 37° C. and 5% CO2 for 6 days. To image chondrogenic nodules, the cells were fixed using 4% formaldehyde (Electron Microscopy Sciences), and stained with 2 μg/mL Rhodamine B (Sigma-Aldrich) and 20 μM Nile Red (Sigma-Aldrich) [Johnson K., et. al, A Stem Cell-Based Approach to Cartilage Repair, Science, (2012), 336(6082), 717-721]. The nodules imaged (25 images per well for 96 well plates and 9 images per well for 384 well plates at 10× magnification) by excitation at 531 nm and emission at 625 nm and quantified using the CellInsight CX5 (Thermo Scientific). Area of nodules in each well was normalized to the average of 3 DMSO treated wells on the same plate using Excel (Microsoft Inc.). The normalized averages (fold change over DMSO) of 2 or 3 replicate wells for each compound concentration were calculated. Due to solubility limitations of some of the compounds, curve fitting was incomplete leading to inaccurate EC50 determinations.
Using TGF-β3 as a positive control, the concentration of representative compounds required to induce 50% levels of chondrogenesis is reported. In addition, the maximum activity of each compound and the respective dose that each compound reached maximum chondrogenesis activity is reported.

[2] = tested on: IL-6 (THP-1 cells); assay: IL-6 inhibition in LPS-stimulated THP-1 monocytes (HTRF); assay type: cell-based; settings: Homo sapiens, IL-6 HTRF; for EC50: 500 ng/mL LPS, Table 6; for inhibition at 10 µM: LPS, Table 6, read-out: percent inhibition at 10 μM (given in parentheses for EC50 >10 μM)
In short: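 THP-1 cells in 1% FBS pre-incubated 2 h with compound (10-point 1:3 series from 10 μM, 0.1% DMSO), then stimulated with 500 ng/mL LPS for 22 h at 37 °C. IL-6 measured by HTRF 665/620 ratio, normalized to DMSO; EC50 by four-parameter fit, or % inhibition at 10 μM when EC50 >10 μM.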

Structure (SMILES): Fc1cccc(-c2cccc3[nH]c(-c4n[nH]c5ccc(C6=CCNCC6)nc45)nc23)c1 [Compound 506, 3-(4-(3-Fluorophenyl)-1H-benzo[d]imidazol-2-yl)-5-(1,2,3,6-tetrahydropyridin-4-yl)-1H-pyrazolo[4,3-b]pyridine]
- Emax [1]: 42%
- EC50 [2]: > 10000 nM
- inhibition at 10 µM [2]: 25.9%

Structure (SMILES): Fc1cccc(-c2cccc3[nH]c(-c4n[nH]c5ccc(-c6cn[nH]c6)nc45)nc23)c1 [Compound 507, 3-(4-(3-Fluorophenyl)-1H-benzo[d]imidazol-2-yl)-5-(1H-pyrazol-4-yl)-1H-pyrazolo[4,3-b]pyridine]
- Emax [1]: 53%
- EC50 [2]: > 10000 nM
- inhibition at 10 µM [2]: 31.7%

Structure (SMILES): Fc1cccc(-c2cccc3[nH]c(-c4n[nH]c5ccc(-c6cnccn6)nc45)nc23)c1 [Compound 520, 3-(4-(3-Fluorophenyl)-1H-benzo[d]imidazol-2-yl)-5-(pyrazin-2-yl)-1H-pyrazolo[4,3-b]pyridine]
- Emax [1]: 64%
- EC50 [1]: 2 nM
- EC50 [2]: > 10000 nM
- inhibition at 10 µM [2]: 43.3%

Structure (SMILES): CN(C)CCOc1cncc(-c2ccc3[nH]nc(-c4nc5c(-c6cccs6)cccc5[nH]4)c3n2)c1 [Compound 707, N,N-Dimethyl-2-((5-(3-(4-(thiophen-2-yl)-1H-benzo[d]imidazol-2-yl)-1H-pyrazolo[4,3-b]pyridin-5-yl)pyridin-3-yl)oxy)ethan-1-amine]
- Emax [1]: 142%
- EC50 [1]: 10 nM
- EC50 [2]: 5890 nM

Structure (SMILES): CN(C)CC(=O)Nc1cncc(-c2ccc3[nH]nc(-c4nc5c(-c6cccc(F)c6)cccc5[nH]4)c3n2)c1 [Compound 969, 2-(Dimethylamino)-N-(5-(3-(4-(3-fluorophenyl)-1H-benzo[d]imidazol-2-yl)-1H-pyrazolo[4,3-b]pyridin-5-yl)pyridin-3-yl)acetamide]
- Emax [1]: 44%
- EC50 [2]: > 10000 nM
- inhibition at 10 µM [2]: 39%

Structure (SMILES): COc1cccc(-c2cccc3[nH]c(-c4n[nH]c5ccc(-c6cccnc6)nc45)nc23)c1 [Compound 994, 3-(4-(3-Methoxyphenyl)-1H-benzo[d]imidazol-2-yl)-5-(pyridin-3-yl)-1H-pyrazolo[4,3-b]pyridine]
- Emax [1]: 70%
- EC50 [1]: 100 nM
- EC50 [2]: > 10000 nM
- inhibition at 10 µM [2]: 32.2%

Structure (SMILES): COc1cccc(-c2cccc3[nH]c(-c4n[nH]c5ccc(-c6cncc(NC(=O)Cc7ccccc7)c6)nc45)nc23)c1 [Compound 1000, N-(5-(3-(4-(3-Methoxyphenyl)-1H-benzo[d]imidazol-2-yl)-1H-pyrazolo[4,3-b]pyridin-5-yl)pyridin-3-yl)-2-phenylacetamide]
- Emax [1]: 50%
- EC50 [1]: 900 nM
- EC50 [2]: 812 nM

Structure (SMILES): CC(C)CC(=O)Nc1cncc(-c2ccc3[nH]nc(-c4nc5c(-c6ccc(Cl)s6)cccc5[nH]4)c3n2)c1 [Compound 1037, N-(5-(3-(4-(5-Chlorothiophen-2-yl)-1H-benzo[d]imidazol-2-yl)-1H-pyrazolo [4,3-b]pyridin-5-yl)pyridin-3-yl)-3-methylbutanamide]
- Emax [1]: 56%
- EC50 [1]: 10 nM
- EC50 [2]: > 10000 nM
- inhibition at 10 µM [2]: 19.5%

Structure (SMILES): CC(C)(C)C(=O)Nc1cncc(-c2ccc3[nH]nc(-c4nc5c(-c6ccc(Cl)s6)cccc5[nH]4)c3n2)c1 [Compound 1043, N-(5-(3-(4-(5-chlorothiophen-2-yl)-1H-benzo[d]imidazol-2-yl)-1H-pyrazolo[4,3-b]pyridin-5-yl)pyridin-3-yl)pivalamide]
- Emax [1]: 65%
- EC50 [1]: 10 nM
- EC50 [2]: > 10000 nM
- inhibition at 10 µM [2]: 16.9%

Structure (SMILES): Clc1ccc(-c2cccc3[nH]c(-c4n[nH]c5ccc(-c6cncc(CN7CCCC7)c6)nc45)nc23)s1 [Compound 1049, 3-(4-(5-Chlorothiophen-2-yl)-1H-benzo[d]imidazol-2-yl)-5-(5-(pyrrolidin-1-ylmethyl)pyridin-3-yl)-1H-pyrazolo[4,3-b]pyridine]
- Emax [1]: 408%
- EC50 [2]: > 10000 nM
- inhibition at 10 µM [2]: 48.3%

Structure (SMILES): O=C(Nc1cncc(-c2ccc3[nH]nc(-c4nc5c(-c6ccc(Cl)s6)cccc5[nH]4)c3n2)c1)C1CCC1 [Compound 1056, N-(5-(3-(4-(5-Chlorothiophen-2-yl)-1H-benzo[d]imidazol-2-yl)-1H-pyrazolo [4,3-b]pyridin-5-yl)pyridin-3-yl)cyclobutanecarboxamide]
- Emax [1]: 100%
- EC50 [1]: 10 nM
- EC50 [2]: > 10000 nM
- inhibition at 10 µM [2]: 47.8%

Structure (SMILES): O=C(Nc1cncc(-c2ccc3[nH]nc(-c4nc5c(-c6ccccc6F)cccc5[nH]4)c3n2)c1)C(F)(F)F [Compound 1126, 2,2,2-Trifluoro-N-(5-(3-(4-(2-fluorophenyl)-1H-benzo[d]imidazol-2-yl)-1H-pyrazolo[4,3-b]pyridin-5-yl)pyridin-3-yl)acetamide]
- Emax [1]: 40%
- EC50 [2]: 51.8 nM

Structure (SMILES): CN1CCN(c2cccc3[nH]c(-c4n[nH]c5ccc(-c6cncc(NC(=O)C(F)(F)F)c6)nc45)nc23)CC1 [Compound 1127, 2,2,2-Trifluoro-N-(5-(3-(4-(4-methylpiperazin-1-yl)-1H-benzo[d]imidazol-2-yl)-1H-pyrazolo[4,3-b]pyridin-5-yl)pyridin-3-yl)acetamide]
- Emax [1]: 51%
- EC50 [1]: 30 nM
- EC50 [2]: 7090 nM
